Laboratory results from patent publication US10538554B2, “Peptides and uses therefor as antiviral agents” (priority 2015, dated 2020).
Bridge positions count the residues as written; N and C are the ends. Square brackets hold non-standard residues; d marks the D form. Peptide text beside a SMILES is read from it.

Assays:
[1] = system: H1N1 A/PR/8/1934; settings: A/PR/8/1934, 48 h, 1 μM
[2] = system: H3N8 A/Miami/2/63; settings: A/Miami/2/63, 48 h, 500 μM
[3] = system: H9N2 A/Iran/16/2000; settings: 48 h, 500 μM
[4] = system: H1N1 A1/Malaysia/302/1954; settings: A1/Malaysia/302/1954, 48 h, 500 μM

| Structure (SMILES) | % Inhibition [1] [%] | % inhibition H3N8 [2] [%] | % inhibition H9N2 [3] [%] | % inhibition H1N1 [4] [%] |
| --- | --- | --- | --- | --- |
| CC[C@@H](C)[C@H]1NC(=O)[C@@H](Cc2ccccc2)NC(=O)[C@@H]([C@H](C)O)NC(=O)[C@@H](Cc2ccccc2)NC(=O)[C@@H](Cc2c[nH]c3ccccc23)NC(=O)[C@@H](Cc2c[nH]c3ccccc23)NC(=O)[C@H](NC(=O)[C@H](CCCCN)NC(=O)[C@H](CCCCN)NC(=O)[C@H](CCCNC(=N)N)NC(=O)[C@@H](N)CCCNC(=N)N)CSSC[C@H](C(=O)O)NC(=O)[C@@H](CCCCN)NC1=O [PSP VI A9, H-RRKKcwwftfikc-OH] (H-RRKK[dC][dW][dW][dF][dT][dF][dI][dK][dC]-OH; disulfide 5-13) | 11 | – | – | – |
| CC[C@@H](C)[C@H]1NC(=O)[C@@H](Cc2ccccc2)NC(=O)[C@@H]([C@H](C)O)NC(=O)[C@@H](Cc2ccccc2)NC(=O)[C@@H](Cc2c[nH]c3ccccc23)NC(=O)[C@@H](Cc2c[nH]c3ccccc23)NC(=O)[C@H](NC(=O)[C@H](CCCCN)NC(=O)[C@H](CCCCN)NC(=O)[C@H](CCCNC(=N)N)NC(=O)[C@@H](N)CCCNC(=N)N)CSSC[C@H](C(=O)O)NC(=O)[C@@H]([C@H](C)O)NC1=O [PSP VI A17, H-RRKKcwwftfitc-OH] (H-RRKK[dC][dW][dW][dF][dT][dF][dI][dT][dC]-OH; disulfide 5-13) | 27 | – | – | – |
| CC[C@@H](C)[C@H]1NC(=O)[C@@H](Cc2ccccc2)NC(=O)[C@@H]([C@H](C)O)NC(=O)[C@@H](Cc2ccccc2)NC(=O)[C@@H](Cc2c[nH]c3ccccc23)NC(=O)CNC(=O)[C@H](NC(=O)[C@H](CCCCN)NC(=O)[C@H](CCCCN)NC(=O)[C@H](CCCNC(=N)N)NC(=O)[C@@H](N)CCCNC(=N)N)CSSC[C@H](C(=O)O)NC(=O)[C@@H](CC(N)=O)NC1=O [PSP V A6, H-RRKKcGwftfinc-OH] (H-RRKK[dC]G[dW][dF][dT][dF][dI][dN][dC]-OH; disulfide 5-13) | <20 | – | – | – |
| CC[C@@H](C)[C@H]1NC(=O)[C@@H](Cc2ccccc2)NC(=O)[C@@H]([C@H](C)O)NC(=O)[C@@H](Cc2ccccc2)NC(=O)[C@@H](Cc2c[nH]c3ccccc23)NC(=O)[C@@H](Cc2c[nH]c3ccccc23)NC(=O)[C@H](NC(=O)[C@H](CCCCN)NC(=O)[C@H](CCCCN)NC(=O)[C@H](CCCNC(=N)N)NC(=O)[C@@H](N)CCCNC(=N)N)CSSC[C@H](C(=O)O)NC(=O)[C@H]2CCCN2C1=O [PSP VI A13, H-RRKKcwwftfipc-OH] (H-RRKK[dC][dW][dW][dF][dT][dF][dI][dP][dC]-OH; disulfide 5-13) | 42 | – | – | – |
| CC[C@@H](C)[C@H]1NC(=O)[C@@H](Cc2ccccc2)NC(=O)[C@@H](CCCNC(=N)N)NC(=O)[C@@H](CO)NC(=O)[C@@H](CC(=O)O)NC(=O)[C@@H]([C@H](C)O)NC(=O)[C@H](NC(=O)[C@@H](CCCCN)NC(=O)[C@@H](CCCCN)NC(=O)[C@@H](CCCNC(=N)N)NC(=O)[C@H](N)CCCNC(=N)N)CSSC[C@H](C(=O)O)NC(=O)[C@@H](CC(N)=O)NC1=O [PSP II A3, H-rrkkctdsrfinc-OH] (H-[dR][dR][dK][dK][dC][dT][dD][dS][dR][dF][dI][dN][dC]-OH; disulfide 5-13) | – | 85.2 | 40 | 44.8 |
| CC[C@@H](C)[C@H]1NC(=O)[C@@H](Cc2ccccc2)NC(=O)[C@@H](CCCNC(=N)N)NC(=O)[C@@H](CO)NC(=O)[C@@H](Cc2c[nH]cn2)NC(=O)[C@@H]([C@H](C)O)NC(=O)[C@H](NC(=O)[C@@H](CCCCN)NC(=O)[C@@H](CCCCN)NC(=O)[C@@H](CCCNC(=N)N)NC(=O)[C@H](N)CCCNC(=N)N)CSSC[C@H](C(=O)O)NC(=O)[C@@H](CC(N)=O)NC1=O [PSP II A7, H-rrkkcthsrfinc-OH] (H-[dR][dR][dK][dK][dC][dT][dH][dS][dR][dF][dI][dN][dC]-OH; disulfide 5-13) | – | 81.5 | 50 | 71 |
| CC[C@@H](C)[C@H]1NC(=O)[C@@H](Cc2ccccc2)NC(=O)[C@@H](CCCNC(=N)N)NC(=O)[C@@H](CO)NC(=O)[C@@H](CCSC)NC(=O)[C@@H]([C@H](C)O)NC(=O)[C@H](NC(=O)[C@@H](CCCCN)NC(=O)[C@@H](CCCCN)NC(=O)[C@@H](CCCNC(=N)N)NC(=O)[C@H](N)CCCNC(=N)N)CSSC[C@H](C(=O)O)NC(=O)[C@@H](CC(N)=O)NC1=O [PSP II A11, H-rrkkctmsrfinc-OH] (H-[dR][dR][dK][dK][dC][dT][dM][dS][dR][dF][dI][dN][dC]-OH; disulfide 5-13) | – | 76.5 | 40 | 65.4 |
| CC[C@@H](C)[C@H]1NC(=O)[C@@H](Cc2ccccc2)NC(=O)[C@@H](CCCNC(=N)N)NC(=O)[C@@H](CO)NC(=O)[C@@H](CCCNC(=N)N)NC(=O)[C@@H]([C@H](C)O)NC(=O)[C@H](NC(=O)[C@@H](CCCCN)NC(=O)[C@@H](CCCCN)NC(=O)[C@@H](CCCNC(=N)N)NC(=O)[C@H](N)CCCNC(=N)N)CSSC[C@H](C(=O)O)NC(=O)[C@@H](CC(N)=O)NC1=O [PSP II A15, H-rrkkctrsrfinc-OH] (H-[dR][dR][dK][dK][dC][dT][dR][dS][dR][dF][dI][dN][dC]-OH; disulfide 5-13) | – | 79.4 | 90 | 57.7 |
| CC[C@@H](C)[C@H]1NC(=O)[C@@H](Cc2ccccc2)NC(=O)[C@@H](CCCNC(=N)N)NC(=O)[C@@H](CO)NC(=O)[C@@H](C(C)C)NC(=O)[C@@H]([C@H](C)O)NC(=O)[C@H](NC(=O)[C@@H](CCCCN)NC(=O)[C@@H](CCCCN)NC(=O)[C@@H](CCCNC(=N)N)NC(=O)[C@H](N)CCCNC(=N)N)CSSC[C@H](C(=O)O)NC(=O)[C@@H](CC(N)=O)NC1=O [PSP II A18, H-rrkkctvsrfinc-OH] (H-[dR][dR][dK][dK][dC][dT][dV][dS][dR][dF][dI][dN][dC]-OH; disulfide 5-13) | – | 47 | 70 | 42.3 |
| CC[C@@H](C)[C@H]1NC(=O)[C@@H](Cc2ccccc2)NC(=O)[C@@H](CCCNC(=N)N)NC(=O)[C@@H](CO)NC(=O)[C@@H](CCC(N)=O)NC(=O)[C@@H]([C@H](C)O)NC(=O)[C@H](NC(=O)[C@@H](CCCCN)NC(=O)[C@@H](CCCCN)NC(=O)[C@@H](CCCNC(=N)N)NC(=O)[C@H](N)CCCNC(=N)N)CSSC[C@H](C(=O)O)NC(=O)[C@@H](CC(N)=O)NC1=O [PSP II A14, H-rrkkctqsrfinc-OH] (H-[dR][dR][dK][dK][dC][dT][dQ][dS][dR][dF][dI][dN][dC]-OH; disulfide 5-13) | – | 85 | 80 | 73 |
| CC[C@@H](C)[C@H]1NC(=O)[C@@H](Cc2ccccc2)NC(=O)[C@@H](CCCNC(=N)N)NC(=O)[C@@H](CO)NC(=O)[C@@H](CO)NC(=O)[C@@H]([C@H](C)O)NC(=O)[C@H](NC(=O)[C@@H](CCCCN)NC(=O)[C@@H](CCCCN)NC(=O)[C@@H](CCCNC(=N)N)NC(=O)[C@H](N)CCCNC(=N)N)CSSC[C@H](C(=O)O)NC(=O)[C@@H](CC(N)=O)NC1=O [PSP II A16, H-rrkkctssrfinc-OH] (H-[dR][dR][dK][dK][dC][dT][dS][dS][dR][dF][dI][dN][dC]-OH; disulfide 5-13) | – | 61.8 | 90 | 61.5 |
| CC[C@@H](C)[C@H]1NC(=O)[C@@H](Cc2ccccc2)NC(=O)[C@@H](CCCNC(=N)N)NC(=O)[C@@H](CO)NC(=O)[C@@H](Cc2c[nH]c3ccccc23)NC(=O)[C@@H]([C@H](C)O)NC(=O)[C@H](NC(=O)[C@@H](CCCCN)NC(=O)[C@@H](CCCCN)NC(=O)[C@@H](CCCNC(=N)N)NC(=O)[C@H](N)CCCNC(=N)N)CSSC[C@H](C(=O)O)NC(=O)[C@@H](CC(N)=O)NC1=O [PSP II A19, H-rrkkctwsrfinc-OH] (H-[dR][dR][dK][dK][dC][dT][dW][dS][dR][dF][dI][dN][dC]-OH; disulfide 5-13) | – | 82.4 | 100 | 88.4 |
| C[C@H](O)[C@H]1NC(=O)[C@H](N)CSSC[C@H](C(=O)O)NC(=O)[C@@H](CC(N)=O)NC(=O)[C@@H](CO)NC(=O)[C@@H](Cc2ccccc2)NC(=O)[C@@H](CCCNC(=N)N)NC(=O)[C@@H](CO)NC(=O)[C@@H](CCCCN)NC1=O [PSP 16, H-ctksrfsnc-OH] (H-[dC][dT][dK][dS][dR][dF][dS][dN][dC]-OH; disulfide 1-9) | – | 71.1 | 45.5 | 13.5 |
| CC[C@@H](C)[C@H]1NC(=O)[C@@H](Cc2ccccc2)NC(=O)[C@@H](CCCNC(=N)N)NC(=O)[C@@H](CO)NC(=O)[C@H]2CCCN2C(=O)[C@@H]([C@H](C)O)NC(=O)[C@H](NC(=O)[C@@H](CCCCN)NC(=O)[C@@H](CCCCN)NC(=O)[C@@H](CCCNC(=N)N)NC(=O)[C@H](N)CCCNC(=N)N)CSSC[C@H](C(=O)O)NC(=O)[C@@H](CC(N)=O)NC1=O [PSP II A13, H-rrkkctpsrfinc-OH] (H-[dR][dR][dK][dK][dC][dT][dP][dS][dR][dF][dI][dN][dC]-OH; disulfide 5-13) | – | 97 | 70 | 86.5 |
| CC[C@@H](C)[C@H]1NC(=O)[C@@H](Cc2ccccc2)NC(=O)[C@@H](CCCNC(=N)N)NC(=O)[C@@H](CO)NC(=O)[C@@H](Cc2ccccc2)NC(=O)[C@@H]([C@H](C)O)NC(=O)[C@H](NC(=O)[C@@H](CCCCN)NC(=O)[C@@H](CCCCN)NC(=O)[C@@H](CCCNC(=N)N)NC(=O)[C@H](N)CCCNC(=N)N)CSSC[C@H](C(=O)O)NC(=O)[C@@H](CC(N)=O)NC1=O [PSP II A5, H-rrkkctfsrfinc-OH] (H-[dR][dR][dK][dK][dC][dT][dF][dS][dR][dF][dI][dN][dC]-OH; disulfide 5-13) | – | 100 | 50 | 82.8 |
